The test deals with EP2 (Homo sapiens, UniProt P43116). The test can be described thus: EP2 cAMP. Format: cell-based. The text has this:
U.S. patent application Ser. No. 11/553,143, filed on Oct. 26, 2006, incorporated by reference herein, describes the methods used to obtain the in vitro data in the table below.

In general, EC50 refers to the concentration that produces a half-maximal response.

Chain of EP2 (P43116 whole entry): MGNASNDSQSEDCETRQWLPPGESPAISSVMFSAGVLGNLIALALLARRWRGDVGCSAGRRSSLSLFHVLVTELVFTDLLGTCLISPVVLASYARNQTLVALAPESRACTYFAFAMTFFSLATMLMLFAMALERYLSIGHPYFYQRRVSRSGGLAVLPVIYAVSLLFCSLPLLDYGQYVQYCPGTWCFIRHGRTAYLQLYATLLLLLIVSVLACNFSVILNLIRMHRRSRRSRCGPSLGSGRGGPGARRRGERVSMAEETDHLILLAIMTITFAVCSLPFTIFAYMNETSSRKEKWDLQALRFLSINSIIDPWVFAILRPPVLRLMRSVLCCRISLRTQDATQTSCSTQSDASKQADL

With `CCCCCC(O)c1ccc(N2C(=O)CSC2CCCc2ccc(C(=O)O)s2)cc1` (centres unmarked), the EC50 is 515 nM.
For `CCCCCC(O)c1ccc(N2C(=O)COC2CCCc2ccc(C(=O)O)s2)cc1` (centres unmarked), the midpoint of the response, the EC50, lay at 0.06 nM. Against the preceding molecule, the EC50 is about 8600-fold lower.

For the origin of these results see patent US8003678B2, “Therapeutic substituted thiazolidinones, oxazolidinones, and related compounds” (Allergan, Inc., priority 2006, dated 2011).
